Assays:
Swiss male mice = assay: Analgesic activity, phenylquinone test (Siegmund et al), oral administration in Swiss male mice; type: in vivo; settings: Mus musculus
Description: (a) Analgesic activity.-Analgesic activity has been determined in Swiss male mice by orally administering the compounds according to the phenylquinone test, as described by Siegmund et al (Proc. Soc.Exp.Biol.Med., 95, 729, 1957). From the analgesia values obtained, the ED50 for each compound has been calculated.

[1] = Acute toxicity, oral administration in female and male Swiss mice (Reed-Muench method as modified by Pizzi); settings: mouse, in vivo
Description: (b) Acute toxicity.-Acute toxicity has been determined in both female and male Swiss mice by oral administration according to the method by Reed-Muench as modified by Pizzi (Human Biology, 22(3), 151-190, 1950).

SMILES	ED50 (Swiss male mice) [mg/kg]	LD50 [1] [mg/kg]
C[C@H](O)[C@@H](c1ccc2c(c1)OCO2)N1CCOCC1 (relative stereo) [Example 2, d,l-erythro-1-(3',4'-methylenedioxyphenyl)-1-morpholine-propane-2-ol]	25.7	1200
C[C@H](O)[C@@H](c1ccc2c(c1)OCO2)N1CCN(Cc2ccccc2)CC1 (relative stereo) [Example 3, d,l-erythro-1-(3',4'-methylenedioxyphenyl)-1-(4-benzyl-1-piperazinyl)propane-2-ol]	29.7	256
CCN(CC)[C@H](c1ccc2c(c1)OCO2)[C@H](C)O (relative stereo) [Example 4, d,l-erythro-1-(3',4'-methylenedioxyphenyl)-1-diethylamino-propane-2-ol]	107	317
C[C@H](O)[C@@H](c1ccc2c(c1)OCO2)N1CCCCC1 (relative stereo) [Example 5, d,l-erythro-1-(3',4'-methylenedioxyphenyl)-1-piperidinepropane-2-ol]	33.3	277
C[C@H](O)[C@@H](c1ccc2c(c1)OCO2)N1CCC(O)CC1 (relative stereo) [Example 6, d,l-erythro-1-(3',4'-methylenedioxyphenyl)-1-(4-hydroxypiperidine)-propane-2-ol]	109	1060
C[C@H](O)[C@@H](c1ccc2c(c1)OCO2)N1CCCC1 (relative stereo) [Example 7, d,l-erythro-1-(3',4'-methylenedioxyphenyl)-1-pyrrolidinopropane-2-ol]	140	599
C[C@H](O)[C@@H](c1ccc2c(c1)OCO2)N1CCCCCC1 (relative stereo) [Example 8, d,l-erythro-1-(3',4'-methylenedioxyphenyl)-1-homopiperidino-propane-2-ol]	45.5	233
C[C@H](O)[C@H](NCc1ccccc1)c1ccc2c(c1)OCO2 (relative stereo) [Example 9, d,l-erythro-1-(3',4'-methylenedioxyphenyl)-1-benzylaminopropane-2-ol]	28.8	252
C[C@H](O)[C@@H](c1ccc2c(c1)OCO2)N(C)Cc1ccccc1 (relative stereo) [Example 10, d,l-erythro-1-(3',4'-methylenedioxyphenyl)-1-(N-methylbenzylamino)-propane-2-ol]	33.8	360
C[C@H](O)[C@@H](c1ccc2c(c1)OCO2)N(C)C1CCCCC1 (relative stereo) [Example 11, d,l-erythro-1-(3',4'-methylenedioxyphenyl)-1-(N-methylcyclohexylamino)-propane-2-ol]	29.8	167
C[C@H](O)[C@H](NC1CC1)c1ccc2c(c1)OCO2 (relative stereo) [Example 12, d,l-erythro-1-(3',4'-methylenedioxyphenyl)-1-cyclopropylaminopropane-2-ol]	62.3	780
C[C@H](O)[C@H](NC1CCCCC1)c1ccc2c(c1)OCO2 (relative stereo) [Example 13, d,l-erythro-1-(3',4'-methylenedioxyphenyl)-1-cyclohexylaminopropane-2-ol]	31.7	245
CC(=O)Oc1ccccc1C(=O)O [Acetylsalicylic acid, reference compound]	72	–
Cc1c(N(C)C)c(=O)n(-c2ccccc2)n1C [Aminophenazone, reference compound]	23.4	–
COc1ccc2c3c1O[C@H]1[C@@H](O)C=C[C@H]4[C@@H](C2)N(C)CC[C@@]341 [Codeine, reference compound]	1.97	–

From patent US4535159A, “Process for producing 1-position amino-derivatives of 1-(3',4'-methylenedioxyphenyl)propane-2-ol” (Ferrer Internacional, S.A., priority 1981, dated 1985)
